Series [1] concerns the target Cannabinoid receptor 2 (Mus musculus) (UniProt P47936). Briefly: Displacement of [3H]CP-55,940 from recombinant mouse CB2 receptor expressed in HEK293 cells at >1 uM after 1 hr by scintillation counting method. Format: cell-based. (In general: In a radioligand displacement assay an active substance lowers the binding of a labelled ligand.)
Series [2] has as its target T1, Fatty-acid amide hydrolase 1 (Rattus norvegicus, UniProt P97612).
T1 sequence (P97612 whole entry): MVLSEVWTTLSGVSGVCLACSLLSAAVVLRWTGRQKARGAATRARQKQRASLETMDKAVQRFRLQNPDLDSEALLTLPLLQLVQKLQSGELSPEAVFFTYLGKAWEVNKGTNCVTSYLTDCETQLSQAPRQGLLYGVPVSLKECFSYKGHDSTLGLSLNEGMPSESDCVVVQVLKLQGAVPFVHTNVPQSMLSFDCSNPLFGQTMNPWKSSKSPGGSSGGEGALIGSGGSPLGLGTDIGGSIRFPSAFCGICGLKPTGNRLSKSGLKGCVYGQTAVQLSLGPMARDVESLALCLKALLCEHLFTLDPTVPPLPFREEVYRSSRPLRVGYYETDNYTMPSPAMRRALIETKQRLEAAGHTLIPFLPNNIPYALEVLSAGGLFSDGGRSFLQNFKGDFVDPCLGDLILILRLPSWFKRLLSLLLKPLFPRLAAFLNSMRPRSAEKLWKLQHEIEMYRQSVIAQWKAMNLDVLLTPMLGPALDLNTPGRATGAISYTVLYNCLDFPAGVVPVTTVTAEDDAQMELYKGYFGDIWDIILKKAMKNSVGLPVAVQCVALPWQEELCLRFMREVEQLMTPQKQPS
Briefly: Inhibition of rat FAAH using AAMCA as substrate by fluorescence assay.

For series [3], the target named is T2, Monoacylglycerol lipase ABHD6 (Homo sapiens) (UniProt Q9BV23).
T2 sequence (whole entry): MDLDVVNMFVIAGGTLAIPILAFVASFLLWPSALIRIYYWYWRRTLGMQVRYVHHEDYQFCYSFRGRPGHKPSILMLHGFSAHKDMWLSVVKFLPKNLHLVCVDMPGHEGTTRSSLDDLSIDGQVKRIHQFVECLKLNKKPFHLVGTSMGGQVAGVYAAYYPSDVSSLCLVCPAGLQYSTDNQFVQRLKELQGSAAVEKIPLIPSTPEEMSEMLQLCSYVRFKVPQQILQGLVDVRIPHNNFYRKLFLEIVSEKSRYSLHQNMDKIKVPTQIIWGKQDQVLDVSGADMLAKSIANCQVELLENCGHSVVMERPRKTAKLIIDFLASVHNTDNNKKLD
Briefly: Inhibition of human ABHD6 at >10 uM.

Series [4] concerns the target Cannabinoid receptor 2 (Homo sapiens) (UniProt P34972). The series can be described thus: Displacement of [3H]CP-55,940 from recombinant human CB2 receptor expressed in HEK293 cells at >1 uM after 1 hr by scintillation counting method. Type of series: cell-based.
In another series the target is Cannabinoid receptor 1 (Rattus norvegicus, UniProt P20272). Briefly: Displacement of [3H]CP-55,940 from rat CB1 receptor at >1 uM after 1 hr by scintillation counting method.
Chain of Cannabinoid receptor 1 (P20272 whole entry): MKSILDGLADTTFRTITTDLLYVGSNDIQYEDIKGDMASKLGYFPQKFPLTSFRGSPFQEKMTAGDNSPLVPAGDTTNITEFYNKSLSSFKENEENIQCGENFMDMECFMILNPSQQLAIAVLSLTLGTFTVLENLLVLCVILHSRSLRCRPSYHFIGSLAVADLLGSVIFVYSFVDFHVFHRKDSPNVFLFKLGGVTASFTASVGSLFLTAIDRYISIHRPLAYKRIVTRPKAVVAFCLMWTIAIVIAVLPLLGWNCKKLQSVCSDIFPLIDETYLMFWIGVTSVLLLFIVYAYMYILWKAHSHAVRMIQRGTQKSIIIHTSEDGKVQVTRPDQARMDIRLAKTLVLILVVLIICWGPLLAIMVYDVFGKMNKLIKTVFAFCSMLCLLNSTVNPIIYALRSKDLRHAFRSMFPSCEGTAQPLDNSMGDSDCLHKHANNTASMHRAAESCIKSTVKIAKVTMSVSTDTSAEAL
The nature of series [5]: Half life in mouse plasma at 200 uM by HPLC analysis. Type of series: ADME, cell-free.
The nature of series [6]: Oral bioavailability in CD1 mouse at 10 mg/kg. Format: ADME, organism-based. The following applies: in vivo.
Series [7] can be described thus: Half life in human liver microsomes pretreated with compounds followed by NADPH addition by LC-MS/MS analysis. Format: ADME, Microsome. On the technique in general: Microsomes from liver hold many membrane-bound enzymes, among them those of drug oxidation.
A short description of series [8]: Drug uptake in CD1 mouse brain at 2 mg/kg, iv or 10 mg/kg, po. Conditions: in vivo. Format: ADME, organism-based.
Series [9] in a line: Mean residence time in CD1 mouse at 2 mg/kg, iv or 10 mg/kg, po. Type of series: ADME, organism-based. Conditions: in vivo.
The nature of series [10]: Half life in mouse liver microsomes pretreated with compounds followed by NADPH addition by LC-MS/MS analysis. Type of series: ADME, Microsome.
Series [11] in a line: Half life in human plasma at 200 uM by HPLC analysis. Type of series: ADME, cell-free.
Series [12] in a line: Half life in rat liver microsomes pretreated with compounds followed by NADPH addition by LC-MS/MS analysis. Format: ADME, Microsome.
Series [13] is described as follows: Half life in rat plasma at 200 uM by HPLC analysis. Format: ADME, cell-free.
The test system of the next series is Mus musculus. The series can be described thus: Anti-glaucoma activity in normotensive C57BL/6J mouse assessed as intraocular pressure at 3 mM administered as single topical treatment measured after 28 hrs by tonometry (reference value: […] +/- 1.1 mmHg). Format: functional.

Activity calls are given as the source filed them. The rule behind the calls is not given here.

Chain of Cannabinoid receptor 2 (Homo sapiens) (P34972 whole entry): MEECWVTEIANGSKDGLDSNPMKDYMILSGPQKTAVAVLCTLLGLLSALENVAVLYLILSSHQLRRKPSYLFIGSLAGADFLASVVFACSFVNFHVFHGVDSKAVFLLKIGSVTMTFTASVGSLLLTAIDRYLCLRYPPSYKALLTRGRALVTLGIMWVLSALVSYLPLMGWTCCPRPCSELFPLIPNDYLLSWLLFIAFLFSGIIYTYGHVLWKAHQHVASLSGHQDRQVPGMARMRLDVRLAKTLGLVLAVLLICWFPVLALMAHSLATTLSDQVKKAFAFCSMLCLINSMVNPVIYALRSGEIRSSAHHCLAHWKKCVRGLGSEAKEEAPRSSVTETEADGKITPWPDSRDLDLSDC
Chain of Cannabinoid receptor 2 (Mus musculus) (P47936 whole entry): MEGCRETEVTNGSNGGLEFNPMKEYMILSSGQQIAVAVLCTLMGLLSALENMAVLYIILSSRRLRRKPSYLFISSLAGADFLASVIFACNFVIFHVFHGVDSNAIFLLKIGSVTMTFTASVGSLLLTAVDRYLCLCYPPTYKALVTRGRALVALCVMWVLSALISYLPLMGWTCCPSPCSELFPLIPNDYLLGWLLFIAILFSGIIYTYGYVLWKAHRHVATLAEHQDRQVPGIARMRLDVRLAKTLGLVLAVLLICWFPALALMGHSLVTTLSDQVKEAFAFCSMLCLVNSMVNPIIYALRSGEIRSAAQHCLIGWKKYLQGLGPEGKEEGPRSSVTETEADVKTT

A word on the IC50: it is the concentration needed to halve the response being measured. Low values mean greater potency, high ones weaker potency. Regarding `COc1cc(C#N)cc(OC(=O)N2CCC(C(c3ccccc3)c3ccccc3)CC2)c1`, the result in series [1] and in series [4] was inactive. The IC50 in series [2] is > 1000 nM. In series [3], the inhibition result is “inactive”. Besides, on Cannabinoid receptor 1, the Activity entry is listed as “Not Active”.
As to `O=C(Oc1ccccc1)N1CCN(C(c2ccccc2)c2ccccc2)CC1`, the outcome in series [1] and in [4] was inactive. Moreover, in series [3], the inhibition result was “inactive”. Further, the Activity entry at Cannabinoid receptor 1 is listed as “Not Active”.
In the case of `N#Cc1cccc(OC(=O)N2CCC(S(=O)(=O)C(c3ccccc3)c3ccccc3)CC2)c1`, the result in series [1] and in [4] was inactive. Besides, in [3], the inhibition entry is “inactive”. Moreover, the Activity entry at Cannabinoid receptor 1 is listed as “Not Active”.
Regarding `N#Cc1ccc(F)c(OC(=O)N2CCC(C(c3ccccc3)c3ccccc3)CC2)c1`, the result in series [1] and in series [4] was inactive. In [2], the IC50 is > 1000 nM. Also, in series [3], the inhibition result was “inactive”. In addition, the Activity result at Cannabinoid receptor 1 was “Not Active”.
In general, bioavailability refers to the share of a dose that reaches the circulation, judged against a reference dose that is usually intravenous. Read a low bioavailability as poor availability. One may read the MRT as the average time that molecules of a dose stay in the body. For `N#Cc1cccc(OC(=O)N2CCC(C(c3ccccc3)c3ccccc3)CC2)c1`, the t1/2 was > 2 h in series [5]; 2.03 h in series [7]; 0.333 h in series [10]; > 2 h in [11]; 0.717 h in [12]; > 2 h in [13]. The outcome in series [1] and in series [4] was inactive. Moreover, in [6], the bioavailability came to 15%. In addition, in series [2], the IC50 was > 1000 nM. This molecule also displayed a Drug uptake in [8] of 65%. Besides, the mean residence time MRT in series [9] stood at 6 h. In series [3], the inhibition entry was “inactive”. Moreover, the Activity is 19.9 mmHg with Mus musculus and “Not Active” at Cannabinoid receptor 1.
Turning to `N#Cc1cccc(OC(=O)N2CCN(C(c3ccc(F)cc3)c3ccc(F)cc3)CC2)c1`, the outcome in series [1] and in series [4] was inactive. The concentration for half-maximal inhibition (IC50) in series [2] is > 1000 nM. The inhibition result in [3] is “inactive”. Moreover, on Cannabinoid receptor 1, the Activity result is given as “Not Active”.
Take `N#Cc1cccc(OC(=O)N2CCC(C(c3ccc(Cl)cc3)c3ccc(Cl)cc3)CC2)c1`: the outcome in [1] and in [4] was inactive. Besides, the concentration for half-maximal inhibition (IC50) in [2] is > 1000 nM. In addition, in series [3], the inhibition result was “inactive”. On Cannabinoid receptor 1, the Activity entry is reported as “Not Active”.
In the case of `N#Cc1cccc(OC(=O)N2CCN(C3CC3)CC2)c1`, the result in series [1] and in series [4] was inactive. Also, 63 nM corresponded to half-maximal inhibition in [2] (IC50). Besides, in series [3], the inhibition entry is “inactive”. The Activity result at Cannabinoid receptor 1 is reported as “Not Active”.
With `N#Cc1cccc(OC(=O)N2CCC(OC(c3ccccc3)c3ccccc3)CC2)c1`, the outcome in [1] and in series [4] was inactive. Moreover, the 50% inhibitory concentration (IC50) in series [2] was > 1000 nM. In addition, the inhibition entry in series [3] was “inactive”. At Cannabinoid receptor 1, the Activity result is “Not Active”.
As to `N#Cc1cccc(OC(=O)N2CCN(C3c4ccccc4-c4ccccc43)CC2)c1`, the outcome in [1] and in series [4] was inactive. The IC50 in series [2] is > 1000 nM. For the same molecule, the inhibition result in series [3] was “inactive”. The Activity entry on Cannabinoid receptor 1 was “Not Active”.
For the molecule `N#Cc1cc(F)cc(OC(=O)N2CCC(C(c3ccccc3)c3ccccc3)CC2)c1`, the outcome in [1] and in [4] was inactive. Moreover, in series [2], the half-maximal inhibitory concentration (IC50) is > 1000 nM. The inhibition result in series [3] is “inactive”. Also, the Activity entry on Cannabinoid receptor 1 is listed as “Not Active”.
With `N#Cc1cccc(OC(=O)N2CCN(C(c3ccccc3)c3cccnc3)CC2)c1` (stereo not drawn), the result in series [1] and in series [4] was inactive. Further, in series [2], the IC50 was > 1000 nM. Further, the inhibition entry in series [3] was “inactive”. The Activity entry on Cannabinoid receptor 1 was “Not Active”.
Regarding `N#Cc1cccc(OC(=O)N2CCN(C3CCCCC3)CC2)c1`, the outcome in series [1] and in [4] was inactive. In series [2], inhibition was half-maximal at 67 nM (IC50). In addition, the inhibition result in [3] was “inactive”. Also, the Activity entry on Cannabinoid receptor 1 is given as “Not Active”.
For the molecule `Cc1cc(C#N)cc(OC(=O)N2CCC(C(c3ccccc3)c3ccccc3)CC2)c1`, the result in series [1] and in series [4] was inactive. The half-maximal inhibitory concentration (IC50) in series [2] was > 1000 nM. Moreover, in series [3], the inhibition entry is “inactive”. Moreover, at Cannabinoid receptor 1, the Activity entry was “Not Active”.
As to `N#Cc1cccc(OC(=O)N2CCC(C(c3ccccc3)c3ccccc3)CC2)n1`, the result in series [1] and in series [4] was inactive. In series [2], the IC50 was > 1000 nM. Also, the inhibition entry in series [3] is “inactive”. For the same molecule, the Activity result on Cannabinoid receptor 1 was “Not Active”.
Regarding `N#Cc1cccc(OC(=O)N2CCC(NC(c3ccccc3)c3ccccc3)CC2)c1`, the result in series [1] and in series [4] was inactive. Further, in [2], the concentration for half-maximal inhibition (IC50) is > 1000 nM. For the same molecule, in series [3], the inhibition result is “inactive”. At Cannabinoid receptor 1, the Activity entry is “Not Active”.
Regarding `N#Cc1ccnc(OC(=O)N2CCC(C(c3ccccc3)c3ccccc3)CC2)c1`, the outcome in [1] and in series [4] was inactive. Also, the IC50 in series [2] is > 1000 nM. The inhibition result in series [3] was “inactive”. Also, the Activity entry on Cannabinoid receptor 1 is reported as “Not Active”.
For the molecule `N#Cc1cccc(OC(=O)N2CCN(C(c3ccccc3)c3ccccc3)CC2)c1`, the outcome in series [1] and in [4] was inactive. For the same molecule, the IC50 in series [2] is > 1000 nM. The inhibition entry in [3] was “inactive”. Moreover, the Activity result at Cannabinoid receptor 1 was “Not Active”.
Consider `CC(C)N1CCN(C(=O)Oc2cccc(C#N)c2)CC1`, for which the outcome in series [1] and in [4] was inactive. The same molecule had an IC50 in series [2] of 68 nM. The inhibition entry in series [3] was “inactive”. The Activity entry at Cannabinoid receptor 1 was “Not Active”.
In the case of `N#Cc1cc(O)cc(OC(=O)N2CCC(C(c3ccccc3)c3ccccc3)CC2)c1`, the outcome in series [1] and in series [4] was inactive. Further, the IC50 in series [2] is > 1000 nM. The inhibition result in series [3] was “inactive”. Besides, the Activity result at Cannabinoid receptor 1 is listed as “Not Active”.

The values above are taken from ChEMBL document CHEMBL4382224, “Synthesis and evaluation of potent and selective MGL inhibitors as a glaucoma treatment” (Bioorg Med Chem, 2019).
